Measurements reported in US20240336653A1, “PEPTIDE COMPOUND TARGETING ELASTIN-DERIVED PEPTIDES AND USE THEREOF” (Shenzhen Turier Biotech Co., Ltd., priority 2020, published 2024).
*1 amine or outer side, *2 acyl side, *3 side chain or, on linkers, in order; H or OH if unused. Primed or numbered codes have the meaning given here. Where no end group is shown, it is not given here. [ ]: non-standard residue; d: D form. The star is where a group is joined. C20 diacid = O=C(O)CCCCCCCCCCCCCCCCCCC(=O)*; γGlu = O=C(O)[C@H](CCC(=O)[*:2])N[*:1]; Iva = CC[C@](C)(N)C(=O)O; PEG2′ = not defined here

Columns and labels:
LX2 cells = assay: Activity evaluation in LX2 cell model (α-SMA protein expression); format: cell-based, human; settings: 1.0 μM and 10.0 μM, 48 hours incubation, GAPDH internal reference, FIG. 1
Excerpt: In LX2 cell model (which can be directly used as the evaluation model of hepatic fibrosis cells in vitro, because LX2 cells are human liver activated stellate cells. The LX2 cells are purchased from China Center for Type Culture Collection of the Chinese Academy of Sciences, Shanghai, China), the anti-fibrosis activities of peptide compounds 1-25 are preliminarily screened, and the expression of the marker α-SMA protein of myofibroblast activation is detected. The peptide compounds 1-25 is subjected to cell incubation for 48 hours by using two concentrations (1.0 μM and 10.0 μM). The control group is given the same volume of Dulbecco's modified Eagle medium (DMEM) (purchased from Gibco in the United States), and GAPDH (purchased from TransGen Biotech) as the internal reference, α-actin (α-SMA) is a symbolic feature that distinguishes myoblast cells from myofibroblasts.

MMP9 = assay: ELISA of MMP9 in serum of mice of the bleomycin model; format: in vivo, C57BL/6J mice; settings: BLM mice, 150 μg/kg daily intraperitoneal, 14 days, FIG. 6-A
Procedure: (§1) Molding method: 78 male C57BL/6J mice, 16-18 g in weight and 6-8 weeks old, provided by Laboratory Animal Center, Sun Yat-sen University, randomly divided into 13 groups: 1) normal control group (Normal), n=6; 2) sham-operated saline control group (Saline), n=6; 3) bleomycin model group (BLM), n=6; and 4) model treatment group: administration of 150 μg/kg series compounds to mice, 10 groups in total, n=6/group. On the 7th day after the operation of bleomycin induced pulmonary fibrosis in mice, mice in the model treatment group are treated with drugs (administration frequency: daily administration/150 μg/kg, intraperitoneal injection). Samples are taken 14 days after administration, and pathological observations are recorded.
(§2) The bleomycin (purchased from TCI Shanghai)) induced pulmonary fibrosis model manifests the following pathological features: bronchiectasis, hydropic degeneration of bronchial epithelial cells, obvious edema and widening of alveolar interstitium, and deposition of a large number of fibroblasts and collagen tissue. The alveolar structure almost completely disappears, filled with fibrous connective tissue, and accompanied by inflammatory cell infiltration. After 14 days of administration, the mice in the model treatment group are treated and sampled. Blood is taken from the retrobulbar vein for detection of serological indicators, and […] is taken for pathological analysis.
(§3) The occurrence and development of fibrotic diseases are related to TGF-β and MMP-9 induced EMT process. Matrix metalloproteinases (MMPs) are matrix degrading proteases that degrade all components of extracellular matrix. They participate in the pathophysiological process of pulmonary fibrosis, play an important role in the abnormal remodeling of extracellular matrix and destruction of basement membrane, and promote the recruitment of inflammatory cells and fibroblasts. The increased expression of MMP-9 in pulmonary fibrosis animal models and patients, higher than the normal MMP-9 level, may destroy normal tissue structure and increase the migration of inflammatory cells to the disease site. In order to further explore the inhibitory mechanism of polypeptide drugs on bleomycin induced pulmonary fibrosis, we detect the expression of TGFβ, MMP9 cell factors in serum of mice in each group by ELISA. […] We speculate that its mechanism should be related to TGF-β.

[1] = test system: CCl4 induced hepatic fibrosis; assay: Carbon tetrachloride (CCl4) induced hepatic fibrosis model in mice; format: in vivo, C57BL/6J mice; settings: 100.0 μg/kg intraperitoneal, 3 weeks of administration; for aggregation of inflammatory cells in the liver (HE staining) / hepatic fibrosis of mice: FIG. 2; for expression of Collagen I in the liver (immunohistochemistry): FIG. 3; for collagen deposition in the liver (Sirius red staining): FIG. 4
Procedure: Molding method: 72 male C57BL/6J mice, male, 18-22 g in weight and 8 weeks old, provided by Laboratory Animal Center, Sun Yat-sen University, randomly divided into 12 groups: 1) control group (Oil)+saline, intraperitoneal injection, n=6; 2) model control group (CCl4)+saline, intraperitoneal injection, n=6; administration of CCl4 to mice once every three days for 6 weeks; 3) model administration group (CCl4)+100.0 μg/kg series of compounds (group 10), intraperitoneal injection, n=6/group. The mice in the control group are injected with corn oil at the same volume and frequency according to the administration volume of 20% CCl4 at the weight of 5.0 μL/g. Administration frequency: administration of CCl4 to mice once every three days for 6 weeks. After 3 weeks of administration of CCl4 to mice in the model administration group, peptide compounds 1, 5, 7, 11, 12, 13, 17, 18, 21 and 22 are administered for 3 weeks from the 4th week. CCl4 and Oil are purchased from Shanghai Aladdin Biochemical Technology Co., Ltd.
In the CCl4 induced hepatic fibrosis model, the manifestations are: inflammatory cell infiltration around the central vein area, hydropic degeneration of hepatic cells, and increased accumulation of collagen fibers in the portal area and the hepatic interlobular septum. After three weeks of administration, the mice are treated and sampled. Blood is taken from the retrobulbar vein for detection of serological indicators, and liver tissue is taken for pathological analysis.
(§4) Hematoxylin-eosin (H&E) staining: paraffin embedded tissue sections are taken and baked at 60° C. for 1 h. Dewaxing and hydration: xylene for 20 minutes→xylene for 20 minutes→absolute alcohol for 15 minutes→absolute alcohol for 15 minutes→95% alcohol for 10 minutes→90% alcohol for 5 minutes→80% alcohol for 5 minutes. Staining: hematoxylin for 7 minutes→rinsing with tap water→differentiation with 1% hydrochloric acid alcohol for 1 s→rinsing with tap water→eosin staining for 15 s-20 s→rinsing with tap water. Dehydration and transparency: 75% alcohol for 1 s→85% alcohol for 1 s→95% alcohol for 1 s→100% alcohol for 1 s→xylene for Is→xylene for 1 s. The sections are aired for 30 minutes and sealed with gum.
Sirius red staining: drying and dewaxing; standing for 5.0 minutes in double distilled water; Sirius red staining for 60-80 minutes in a dark room; washing for 5 s with 0.5% glacial acetic acid; dehydration and transparency, sealing and taking photos.
Immunohistochemistry: drying sections, dewaxing, and then soaking in double distilled water for 5 minutes. Antigen retrieval: putting the shelf where pathological sections are placed into a beaker containing citric acid buffer (PH=6.0), and keeping it under high temperature and pressure for 15 minutes; taking out the beaker and letting it stand at room temperature until the temperature drops to the room temperature, then taking out the sections and putting them into 3.0% hydrogen peroxide for 10 minutes to block the endogenous peroxidase activity, and then washing them with PBS for three times, 5 minutes each time; sealing the tissues with 1.0% BSA for 1 h; removing 1.0% BSA, adding Collagen I antibody on the tissue according to the proportion recommended in the Description, and staying overnight at 4° C.; taking out the pathological sections next day, adding the second antibody with horseradish peroxidase after the room temperature is restored, incubating it at 37° C. for 60 minutes, and then use DAB (diaminobenzidine) ([…], USA) to develop color; and re-staining with hematoxylin staining solution, washing with tap water for 5 minutes, differentiating with 1% hydrochloric acid alcohol, then washing with tap water for 5 minutes again, dehydrating, airing, sealing, and taking photos (H&E staining solution and Sirius red staining solution are purchased from Sangon Biotech (Shanghai) Co., Ltd., and Collagen I antibody is purchased from CST Corporation).

TGF-β = assay: ELISA of TGFβ in serum of mice of the bleomycin model; format: in vivo, C57BL/6J mice; settings: BLM mice, 150 μg/kg daily intraperitoneal, 14 days, FIG. 6-B
Procedure: as §1, §2, §3

[2] = test system: bleomycin induced pulmonary fibrosis; assay: Bleomycin (BLM) induced pulmonary fibrosis model in mice; format: in vivo, C57BL/6J mice; settings: 150 μg/kg daily intraperitoneal, 14 days, FIG. 5; for degree of pulmonary fibrosis (H&E staining and Masson staining): compared with bleomycin control group; for fibronectin in pulmonary parenchyma (α-SMA and Collagen1 immunohistochemistry): compared with bleomycin group
Procedure: as §1, §2
as §4, with “H&E” for “Hematoxylin-eosin (H&E)”, “1 s→xylene” for “Is→xylene”
Masson staining: drying and dewaxing; mordanting; adding celestine blue staining solution for 2-3 min, and washing with water; adding Mayer hematoxylin staining solution and washing with water; differentiating with acid alcohol differentiation liquid for several seconds, and washing with tap water; adding ponceau magenta staining solution and washing with distilled water; treating with phosphomolybdic acid solution; adding aniline blue staining solution for 5 min; treating with weak acid solution for 2 min; dehydration and transparency, airing and sealing with gum.
Immunohistochemistry: drying sections, dewaxing, and then soaking in double distilled water for 5 minutes. […]

Substance | inhibiting and improving the activity of α-SMA (expression of α-SMA protein) (LX2 cells) | concentration of MMP9 in serum of mice (MMP9) | aggregation of inflammatory cells in the liver (HE staining) [1] | hepatic fibrosis of mice [1] | expression of Collagen I in the liver (immunohistochemistry) [1] | collagen deposition in the liver (Sirius red staining) [1] | concentration of TGF-β in serum of mice (TGF-β) | degree of pulmonary fibrosis (H&E staining and Masson staining) [2] | fibronectin in pulmonary parenchyma (α-SMA and Collagen1 immunohistochemistry) [2]
(PEG2-PEG2-γGlu-CO(CH2)18CO2H)-Val-Val-Gly-Ser-Pro-Ser-Ala-Gln-Glu-Asp-Ala-Ser-Pro-Leu-NH2 ({C20 diacid-γGlu-PEG2′-PEG2′}-VVGSPSAQEDASPL-NH2) [Compound 12] | better effects on inhibiting and improving the activity of α-SMA | significantly reduce | significantly improved | significantly improved | significant therapeutic improvement | significant therapeutic improvement | significantly reduce | significantly reduced | significantly less than that in bleomycin group
Compound 17: cyclic peptide compound, head-to-tail amide (VVGSPSAQDEASPL; head-to-tail cyclisation; Compound 17) | better effects on inhibiting and improving the activity of α-SMA | significantly reduce | significantly improved | significantly improved | significant therapeutic improvement | significant therapeutic improvement | significantly reduce | significantly reduced | significantly less than that in bleomycin group
Compound 18: cyclic peptide compound, head-to-tail amide (VVGSPSAQDEASPA; head-to-tail cyclisation; Compound 18) | better effects on inhibiting and improving the activity of α-SMA | significantly reduce | significantly improved | significantly improved | significant therapeutic improvement | significant therapeutic improvement | significantly reduce | significantly reduced | significantly less than that in bleomycin group
Compound 21: cyclic peptide compound, head-to-tail amide (cyclo(V[Iva]GSPSAQDEASPA); SMILES CC[C@]1(C)NC(=O)[C@H](C(C)C)NC(=O)[C@H](C)NC(=O)[C@@H]2CCCN2C(=O)[C@H](CO)NC(=O)[C@H](C)NC(=O)[C@H](CCC(=O)O)NC(=O)[C@H](CC(=O)O)NC(=O)[C@H](CCC(N)=O)NC(=O)[C@H](C)NC(=O)[C@H](CO)NC(=O)[C@@H]2CCCN2C(=O)[C@H](CO)NC(=O)CNC1=O) | better effects on inhibiting and improving the activity of α-SMA | significantly reduce | significantly improved | significantly improved | significant therapeutic improvement | significant therapeutic improvement | significantly reduce | significantly reduced | significantly less than that in bleomycin group
Compound 22 (V[Iva]GSPSAQEEASPA; not fully specified (N-terminus, C-terminus)) | better effects on inhibiting and improving the activity of α-SMA | significantly reduce | significantly improved | significantly improved | significant therapeutic improvement | significant therapeutic improvement | significantly reduce | significantly reduced | significantly less than that in bleomycin group
